Measured values as given in the supplement of paper PMC10307832.

Experiments:
Experiment in all cases: relative viability (nuclei count vs DMSO), 5 days (fraction); higher = more cells survive
HARA = system: HARA
Summary of the method: (§1)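 One day after seeding in 1536-well plates, lung cancer cell lines were dosed by pin tool. Dosing was either single-drug or a fixed anchor-drug dose plus five library-drug doses (not always all listed) in √10 steps. After 5 days, nuclei were stained in one fix-and-stain step and counted on 4× images, and relative viability is the nuclei count of treated wells over that of vehicle wells, given as the median of duplicate plates.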

NCI-H1650 = system: NCI-H1650
Summary of the method: as §1

H3255 = system: H3255
Summary of the method: as §1

HCC-78 = system: HCC-78
Summary of the method: as §1

NCI-H1666 = system: NCI-H1666
Summary of the method: as §1

NCI-H2087 = system: NCI-H2087
Summary of the method: as §1

HOP-62 = system: HOP-62
Summary of the method: as §1

NCI-H1395 = system: NCI-H1395
Summary of the method: as §1

COR-L23 = system: COR-L23
Summary of the method: as §1

NCI-H1944 = system: NCI-H1944
Summary of the method: as §1

PC-14 = system: PC-14
Summary of the method: as §1

NCI-H2126 = system: NCI-H2126
Summary of the method: as §1

For `CCNC(=O)c1noc(-c2cc(C(C)C)c(O)cc2O)c1-c1ccc(CN2CCOCC2)cc1` [Luminespib] + O=C(c1cc(Cc2n[nH]c(=O)c3ccccc23)ccc1F)N1CCN(C(=O)C2CC2)CC1 [Olaparib] (partner 8 µM), the relative viability (HARA; first compound 0.02 µM) was 0.997, the relative viability (HARA; first compound 0.06325 µM) was 0.146 and the relative viability (HARA; first compound 0.2 µM) was 0.102. The relative viability (NCI-H1650; first compound 0.002 µM) was 0.852, the relative viability (NCI-H1650; first compound 0.006325 µM) was 0.786 and the relative viability (NCI-H1650; first compound 0.02 µM) was 0.686. For the same compound, the relative viability (NCI-H1650; first compound 0.06325 µM) was 0.142, the relative viability (NCI-H1650; first compound 0.2 µM) was 0.137 and the relative viability (H3255; first compound 0.002 µM) was 0.59. The relative viability (H3255; first compound 0.006325 µM) was 0.521, the relative viability (H3255; first compound 0.02 µM) was 0.563 and the relative viability (H3255; first compound 0.06325 µM) was 0.337. The relative viability (H3255; first compound 0.2 µM) was 0.253, the relative viability (HCC-78; first compound 0.002 µM) was 0.773 and the relative viability (HCC-78; first compound 0.006325 µM) was 0.785. It also gave a relative viability (HCC-78; first compound 0.02 µM) of 0.723, a relative viability (HCC-78; first compound 0.06325 µM) of 0.643 and a relative viability (HCC-78; first compound 0.2 µM) of 0.32. For the same compound, the relative viability (NCI-H1666; first compound 0.002 µM) was 0.778, the relative viability (NCI-H1666; first compound 0.006325 µM) was 0.733 and the relative viability (NCI-H1666; first compound 0.02 µM) was 0.753. For the same compound, the relative viability (NCI-H1666; first compound 0.06325 µM) was 0.75, the relative viability (NCI-H1666; first compound 0.2 µM) was 0.716 and the relative viability (NCI-H2087; first compound 0.002 µM) was 0.639. The relative viability (NCI-H2087; first compound 0.006325 µM) was 0.518, the relative viability (NCI-H2087; first compound 0.02 µM) was 0.559 and the relative viability (NCI-H2087; first compound 0.06325 µM) was 0.116. For the same compound, the relative viability (NCI-H2087; first compound 0.2 µM) was 0.113, the relative viability (HOP-62; first compound 0.002 µM) was 0.533 and the relative viability (HOP-62; first compound 0.006325 µM) was 0.453. It also gave a relative viability (HOP-62; first compound 0.02 µM) of 0.723, a relative viability (HOP-62; first compound 0.06325 µM) of 0.0994 and a relative viability (HOP-62; first compound 0.2 µM) of 0.138. For the same compound, the relative viability (NCI-H1395; first compound 0.002 µM) was 0.465, the relative viability (NCI-H1395; first compound 0.006325 µM) was 0.454 and the relative viability (NCI-H1395; first compound 0.02 µM) was 0.427. It also gave a relative viability (NCI-H1395; first compound 0.06325 µM) of 0.403, a relative viability (NCI-H1395; first compound 0.2 µM) of 0.383 and a relative viability (COR-L23; first compound 0.002 µM) of 0.371. For the same compound, the relative viability (COR-L23; first compound 0.006325 µM) was 0.344, the relative viability (COR-L23; first compound 0.02 µM) was 0.482 and the relative viability (COR-L23; first compound 0.06325 µM) was 0.0712. It also gave a relative viability (COR-L23; first compound 0.2 µM) of 0.0572, a relative viability (NCI-H1944; first compound 0.002 µM) of 0.445 and a relative viability (NCI-H1944; first compound 0.006325 µM) of 0.394. For the same compound, the relative viability (NCI-H1944; first compound 0.02 µM) was 0.364, the relative viability (NCI-H1944; first compound 0.06325 µM) was 0.418 and the relative viability (NCI-H1944; first compound 0.2 µM) was 0.33. The relative viability (PC-14; first compound 0.002 µM) was 0.288, the relative viability (PC-14; first compound 0.006325 µM) was 0.261 and the relative viability (PC-14; first compound 0.02 µM) was 0.101. For the same compound, the relative viability (PC-14; first compound 0.06325 µM) was 0.0578, the relative viability (PC-14; first compound 0.2 µM) was 0.0514 and the relative viability (NCI-H2126; first compound 0.002 µM) was 0.924. The relative viability (NCI-H2126; first compound 0.006325 µM) was 0.887, the relative viability (NCI-H2126; first compound 0.06325 µM) was 0.899 and the relative viability (NCI-H2126; first compound 0.2 µM) was 0.903.
